Where “and” joins values, the source holds several entries; their conditions need not be identical. Equal entries are not always repeated. Toxic doses and inconclusive results are not listed.

The text below walks through data of PubChem BioAssay AID248 (DTP/NCI, 2004).

For this assay, the system named is L1210 leukemia ip in BDF1 mice, survival T/C. Put plainly: NCI In Vivo Anticancer Drug Screen. Data for tumor model L1210 Leukemia (intraperitoneal) in B6D2F1 (BDF1) mice. Particulars: endpoint: mean survival time, higher = longer survival. The method, boiled down: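 Antitumor effect is assessed in tumor-bearing animals. Survival in the compound arm is compared with a vehicle-dosed control arm and expressed as their quotient.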

The mark [1] stands for this setting: dose: 100.0 mg/kg/injection, schedule: Q04DX003 (ip), vehicle: saline with Tween-80.
[2] abbreviates: dose: 200.0 mg/kg/injection, schedule: Q04DX003 (ip), vehicle: saline with Tween-80.
[3] abbreviates: dose: 400.0 mg/kg/injection, schedule: Q04DX003 (ip), vehicle: saline with Tween-80.
Where [4] appears, read: dose: 25.0 mg/kg/injection, schedule: Q04DX003 (ip), vehicle: saline.
Where [5] appears, read: dose: 100.0 mg/kg/injection, schedule: Q01DX001 (ip), vehicle: Klucel (hydroxypropylcellulose) (HPC).
Setting [6] is: dose: 100.0 mg/kg/injection, schedule: Q04DX003 (ip), vehicle: Klucel (hydroxypropylcellulose) (HPC).
Setting [7] is: dose: 200.0 mg/kg/injection, schedule: Q04DX003 (ip), vehicle: Klucel (hydroxypropylcellulose) (HPC).
Setting [8] is: dose: 100.0 mg/kg/injection, schedule: Q01DX001 (ip), vehicle: carboxymethylcellulose (CMC).
Setting [9] is: dose: 200.0 mg/kg/injection, schedule: Q01DX001 (ip), vehicle: carboxymethylcellulose (CMC).
[10] abbreviates: dose: 400.0 mg/kg/injection, schedule: Q01DX001 (ip), vehicle: carboxymethylcellulose (CMC).
Where [11] appears, read: dose: 12.5 mg/kg/injection, schedule: Q01DX009 (ip), vehicle: saline.
Setting [12] is: dose: 100.0 mg/kg/injection, schedule: Q01DX001 (ip), vehicle: saline.
Setting [13] is: dose: 200.0 mg/kg/injection, schedule: Q01DX001 (ip), vehicle: saline.
Setting [14] is: dose: 400.0 mg/kg/injection, schedule: Q01DX001 (ip), vehicle: saline.

Consider `O=[N+]([O-])c1cccc(Cl)c1Oc1cc(Cl)c(Cl)cc1Cl`, for which the T/C is, setting by setting: (dose: 1.25 mg/kg/injection, schedule: Q01DX001 (ip), vehicle: saline) 105 % of control; (dose: 2.5 mg/kg/injection, schedule: Q01DX001 (ip), vehicle: saline) 105 % of control; (dose: 5.0 mg/kg/injection, schedule: Q01DX001 (ip), vehicle: saline) 102 % of control; (dose: 10.0 mg/kg/injection, schedule: Q01DX001 (ip), vehicle: saline) 96 % of control.
Consider `CCOC(=O)c1ccc(N2C(=O)C=CC2=O)cc1`, for which the T/C under setting [1] is 96 % of control, the T/C under setting [2] is 98 % of control and the T/C under setting [3] is 89 % of control.
Take `CCS(=O)(=O)c1ccc2nnnn2n1`: the T/C by setting is: (dose: 6.25 mg/kg/injection, schedule: Q04DX003 (ip), vehicle: saline) 103 % of control; (dose: 12.5 mg/kg/injection, schedule: Q04DX003 (ip), vehicle: saline) 100 % of control; under setting [4], 112 % of control.
As for `N/C(=N\O)c1cn(C2OC(CO)C(O)C2O)c2nc(Cl)nc(N)c12` (stereo unspecified), the T/C is 109 % of control (dose: 50.0 mg/kg/injection, schedule: Q01DX001 (ip), vehicle: Klucel (hydroxypropylcellulose) (HPC)) and 115 % of control under setting [5].
Turning to `NC(C(=O)O)C(CC(=O)O)C(=O)O` (stereo unspecified), the T/C (dose: 100.0 mg/kg/injection, schedule: Q04DX003 (ip), vehicle: saline) was 93 % of control; the T/C (dose: 200.0 mg/kg/injection, schedule: Q04DX003 (ip), vehicle: saline) is 95 % of control; the T/C (dose: 400.0 mg/kg/injection, schedule: Q04DX003 (ip), vehicle: saline) is 98 % of control.
Turning to `CCOC(=O)Nc1cc2ccncc2c2sc3ccccc3c12`, the T/C is, setting by setting: (dose: 100.0 mg/kg/injection, schedule: Q04DX003 (ip), vehicle: water) 92 % of control; (dose: 200.0 mg/kg/injection, schedule: Q04DX003 (ip), vehicle: water) 87 % of control; (dose: 400.0 mg/kg/injection, schedule: Q04DX003 (ip), vehicle: water) 101 % of control.
On to `C[N+]1(C)CC2C3C=CC(C3)C2C1` (stereo unspecified), for which the T/C under setting [6] was 102 % of control and the T/C under setting [7] is 96 % of control.
As to `CC(=O)OC1OC(C2COC(C)(C)O2)C2OC(C)(C)OC12` (stereo unspecified), the T/C was 103 % of control under setting [8], 103 % of control under setting [9] and 103 % of control under setting [10].
With `COc1cc(N(CCCl)CCCl)c(OC)cc1/C=N\Nc1nnc(C)n1N`, the T/C reads like this: (dose: 2.5 mg/kg/injection, schedule: Q01DX015 (ip), vehicle: carboxymethylcellulose (CMC)) 115 % of control; (dose: 5.0 mg/kg/injection, schedule: Q01DX015 (ip), vehicle: carboxymethylcellulose (CMC)) 121 % of control; (dose: 10.0 mg/kg/injection, schedule: Q01DX015 (ip), vehicle: carboxymethylcellulose (CMC)) 155 % of control; (dose: 30.0 mg/kg/injection, schedule: Q01DX015 (ip), vehicle: carboxymethylcellulose (CMC)) 103 % of control; (dose: 44.0 mg/kg/injection, schedule: Q01DX001 (ip), vehicle: carboxymethylcellulose (CMC)) 103 % of control; (dose: 50.0 mg/kg/injection, schedule: Q01DX001 (ip), vehicle: carboxymethylcellulose (CMC)) 120 % of control. Moreover, the T/C is 115 % of control (dose: 67.0 mg/kg/injection, schedule: Q01DX001 (ip), vehicle: carboxymethylcellulose (CMC)); 161 % of control under setting [8]; 97 % of control under setting [10].
On to `CCCC(Cl)C(=O)Nc1cccc(OC(=O)NC)c1` (stereo unspecified), for which the T/C runs as follows: under setting [1], 95 % of control; under setting [2], 93 % of control; under setting [3], 102 % of control.
On to `Cc1nc(N)c2nonc2n1`, for which, for the setting “dose: 100.0 mg/kg/injection, schedule: Q01DX009 (ip), vehicle: saline with Tween-80”, the T/C is 89 % of control.
Consider `CCNC(=S)NNC(=S)NNc1ccccc1`, for which the T/C by setting is: (dose: 12.5 mg/kg/injection, schedule: Q04DX002 (ip), vehicle: other) 102 % of control; (dose: 25.0 mg/kg/injection, schedule: Q04DX002 (ip), vehicle: other) 100 % of control; (dose: 50.0 mg/kg/injection, schedule: Q04DX002 (ip), vehicle: other) 102 % of control.
Regarding `CC(=O)Oc1c(C)c(Br)c(OC(C)=O)c(-c2c(C)cc(C)c(Br)c2C)c1Br`, the T/C under setting [5] was 87 % of control; the T/C under setting [6] was 100 % of control; the T/C (dose: 200.0 mg/kg/injection, schedule: Q01DX001 (ip), vehicle: Klucel (hydroxypropylcellulose) (HPC)) was 95 % of control; the T/C under setting [7] is 95 % of control; the T/C (dose: 400.0 mg/kg/injection, schedule: Q01DX001 (ip), vehicle: Klucel (hydroxypropylcellulose) (HPC)) is 95 % of control; the T/C (dose: 400.0 mg/kg/injection, schedule: Q04DX003 (ip), vehicle: Klucel (hydroxypropylcellulose) (HPC)) was 101 % of control.
For `OCCN1CCN(CC/C=C2/c3ccccc3Sc3ccc(Cl)cc32)CC1`, the T/C runs as follows: (dose: 6.25 mg/kg/injection, schedule: Q01DX001 (ip), vehicle: saline) 96 % of control; (dose: 8.0 mg/kg/injection, schedule: Q01DX015 (ip), vehicle: saline) 107 % of control; (dose: 12.5 mg/kg/injection, schedule: Q01DX001 (ip), vehicle: saline) 102 % of control; under setting [11], 108 % of control; (dose: 25.0 mg/kg/injection, schedule: Q01DX001 (ip), vehicle: saline) 98 % of control and 122 % of control; (dose: 25.0 mg/kg/injection, schedule: Q01DX009 (ip), vehicle: saline) 116 % of control. In addition, the T/C under setting [4] was 110 % of control; the T/C (dose: 37.5 mg/kg/injection, schedule: Q01DX001 (ip), vehicle: saline) is 101 % of control; the T/C (dose: 50.0 mg/kg/injection, schedule: Q01DX001 (ip), vehicle: saline) is 113 % of control; the T/C (dose: 50.0 mg/kg/injection, schedule: Q04DX003 (ip), vehicle: saline) is 116 % of control; the T/C (dose: 75.0 mg/kg/injection, schedule: Q01DX001 (ip), vehicle: saline) was 102 % of control and 120 % of control; the T/C under setting [12] is 100 % of control.
`CC1c2nc(N)nc(N)c2CN1C(=O)c1ccccc1` (stereo unspecified): the T/C runs as follows: under setting [8], 98 % of control; under setting [9], 98 % of control; under setting [10], 97 % of control.
For `CCCCCCCCCCCCCCCCCCNC(=O)Nc1cc(C(C)C)ccc1C`, the T/C reads like this: (dose: 100.0 mg/kg/injection, schedule: Q01DX009 (ip), vehicle: other) 86 % of control; (dose: 200.0 mg/kg/injection, schedule: Q01DX009 (ip), vehicle: other) 88 % of control; (dose: 400.0 mg/kg/injection, schedule: Q01DX009 (ip), vehicle: other) 99 % of control and 100 % of control.
As to `CC(C)(N)COC(=O)c1ccccc1C(=O)O`, the T/C is, setting by setting: under setting [12], 91 % of control; under setting [13], 96 % of control; under setting [14], 94 % of control.
Take `NC(=O)c1ccccc1C(=O)c1ccccc1`: the T/C was 102 % of control under setting [12] and 104 % of control under setting [13].
For the compound `COc1ccc(N=CC2CCCCC2=O)c([N+](=O)[O-])c1` (stereo unspecified), the T/C under setting [12] is 106 % of control, the T/C under setting [13] is 95 % of control and the T/C under setting [14] was 93 % of control.
Regarding `N#CC(c1ccccc1)c1ccccc1`, the T/C runs as follows: (dose: 100.0 mg/kg/injection, schedule: Q01DX001 (ip), vehicle: other) 97 % of control; (dose: 200.0 mg/kg/injection, schedule: Q01DX001 (ip), vehicle: other) 90 % of control; (dose: 400.0 mg/kg/injection, schedule: Q01DX001 (ip), vehicle: other) 95 % of control.
In the case of `C/C(CCCCl)=N/NC(N)=S`, the T/C was 98 % of control (dose: 6.25 mg/kg/injection, schedule: Q01DX009 (ip), vehicle: saline); 98 % of control (dose: 6.25 mg/kg/injection, schedule: Q04DX003 (ip), vehicle: saline with Tween-80); 107 % of control under setting [11]; 92 % of control (dose: 12.5 mg/kg/injection, schedule: Q04DX003 (ip), vehicle: saline with Tween-80); 90 % of control (dose: 25.0 mg/kg/injection, schedule: Q04DX003 (ip), vehicle: saline with Tween-80); 100 % of control (dose: 100.0 mg/kg/injection, schedule: Q01DX001 (ip), vehicle: acetone). Besides, the T/C (dose: 200.0 mg/kg/injection, schedule: Q01DX001 (ip), vehicle: acetone) is 90 % of control.
